From patent publication US9346839B2 come the findings set out here.

Entries after “also recorded” stand apart in the source; their conditions may differ. Where two headings read alike, the source gives them in different places.

Data set [1] concerns mitochondrial permeability transition pore (mPTP). The experiment in a line: Mitochondria swelling assay in response to Ca2+. Details: species or system mice. To be noted: for calcium-mediated mitochondrial swelling: with calcium. Here is the method: Isolation of Brain Mitochondria. Brain from mice without white matter was used for mitochondrial isolation. Brain was homogenized in 9 ml of ice-cold EB buffer (1 mmol EDTA, 1-6 mg/ml BSA) using a Dounce homogenizer until no particles could be seen. Homogenates were centrifuged at 1300×g for 5 minutes. Supernatant from this fraction was carefully laid on top of a 15% PERCOLL solution (10 ml) and then centrifuged at 16000 RPM for 10 minutes. The pellet was carefully mixed with 9 ml of mitochondrial buffer (4.098% D-mannitol, 2.56% sucrose, 0.034% K2HPO4, pH 7.3-7.4) and 200 μl of 1% digitonin. After 5 minutes incubation on ice, the mixture was centrifuged at 8000 RPM for 10 minutes. Mitochondrial pellet was washed once with mitochondrial buffer. Subsequently, the mitochondrial pellet was resuspended in 100 μl of mitochondrial buffer and was used for further experiments.
Mitochondria Swelling Assay. A proper amount of mitochondria was resuspended into 1 ml swelling assay buffer (150 mM KCl, 2 mM KH2PO4, 10 mM HEPES, pH 7.4) and energized by 1 mM glutamate and 1 mM malate. Calcium at varying concentrations was added into the assay buffer to trigger mitochondrial swelling. Mitochondrial permeability transition was determined by studying the rate of change in absorbance at 540 nm via a spectrophotometer.
Mitochondrial Swelling in Response to Ca^2+. Given that the Compounds 4, 8 and 15 could inhibit ABAD activity, it was determined whether these same compounds could decrease mitochondrial permeability transition pore (mPTP) formation.

The next data set deals with mAPP mice. As to the kind of experiment: Hippocampal long-term potentiation (LTP) in slices from treated mice. The class given is in vivo. Here is the method:
LTP was induced by theta-burst stimulation (TBS) 20 minutes after baseline recordings in hippocampal slices from Non-Tg mice treated with vehicle (n=9 slices from 3 mice), Non-Tg mice treated with Compound 8 (n=9 slices from 3 mice), mAPP mice treated with vehicle (n=8 slices from 3 mice), and mAPP mice treated with Compound 8 (n=8 slices from 3 mice). LTP is expressed as percentage potentiation of baseline (100%) (FIG. 5A).
LTP is expressed as percentage potentiation of baseline (100%) (FIG. 7A).
Synaptic failure in AD is largely reflected by impaired long-term synaptic plasticity in terms of long-term potentiation (LTP). […] Representative field excitatory post-synaptic potentials (fEPSP) waveforms are provided in FIGS. 5A and 7A and the residual potentiation from fEPSP slopes occurring over the last 5 minutes of LTP recording are provided in FIGS. 5B and 7B.

The next data set deals with ABAD (Homo sapiens (Human), UniProt Q99714). As to the kind of experiment: Surface plasmon resonance (BIACORE 3000) binding experiment with ABAD.
The nature of data set [2]: Pharmacokinetic study, plasma and brain levels by LC-MS/MS. The class given is in vivo. To be noted: both sexes, C57BL6, mouse, intravenous 10 mg/kg, mice; for AUC(0-t): read-out: AUC0-48. Here is the method:
Liquid Chromatography (LC) Method for Mass Spectrometry (MS) Detection. Chromatographic separation was on an ACE C18 column (Mac Mod Analytical, 3 μm, Ultra-Inert HPLC Column, 50×2.1 mm) protected by a matched ACE guard cartridge. Separation solvents were A: H2O (99%), methanol (1%), and formic acid (0.1%) and B: H2O (1%), methanol (99%), and formic acid (0.1%) delivered at a flow rate of 400 μl/minute. The hydrophobic character of the analytes allows a large injection (50 μl) to chromatofocus on a column at 5% B. After 0.2 minutes separation was with a linear gradient of 11% B/minute for 4 minutes. Column wash was to 80% B for 2 minutes and re-equilibration at 5% B for 1.5 minutes for a total run-time of 8 minutes. The first 2 minutes of chromatographic effluent was diverted to waste.
Mass Spectrometry Parameters. The mass spectrometer was run in positive ion mode using the electrospray ionization (ESI) source. The source block was 100° C. and desolvation gas temperature 300° C. Argon collision gas pressure on a line to the cell was 1E-3 mbar. Quadrupoles 1 and 3 were set to 0.9 amu FWHH and collision energy and cone voltage settings were optimized for each compound. The data were processed using MassLynx 4.1/QuanLynx and Graphpad Prism 5. Fragmentation patterns of compounds 4, 8, and 15, methyl (Z)-3-(((6-methoxybenzo[d]thiazol-2-yl)imino)methyl)benzoate, 4-(1-((6-methoxybenzo-[d]thiazol-2-yl)amino)ethyl)phenol, and (Z)-1-(4-fluorophenyl)-N-(6-methoxybenzo[d]thiazol-2-yl) methanimine were determined by infusing an aqueous/methanol solution introduce with a T fitting into 30% solvent B from the UPLC for source optimization. The most abundant transitions were chosen for all the three compounds.
Plasma Sample Preparation. Mouse plasma samples, 50 μl, were transferred to a 1.5 ml centrifuge tube and then 50 μl of IS (4 μg/ml) and 50 μl of calibration standard sample were vortexed for 30 seconds. Acetonitrile (0.1 ml) was added to precipitate the proteins. After being vortexed for 3 minutes, the sample was centrifuged for 10 minutes at 13000 rpm. Supernatant (50 μl) was diluted with 50 μl water and injected onto the column.
Brain Sample Preparation. Brain tissue (100 mg) was weighed and placed in a centrifuge tube. Methanol (100 μl) was added and the mixture was homogenized for 1 minute before adding 100 μl IS (6 μg/ml) to the homogenized mixture. The sample was then vortexed for 30 seconds before centrifuging for 10 minute at 13000 rpm. The supernatant liquid was diluted 50% with water and injected.
Application to Pharmacokinetic Study and Data Analysis. Using the validated LCMS/MS method, blood and brain levels of 4, 8, and 15 were measured in male and female C57BL6 mice (8-10 week-old, weighing approximately 25-30 grams). The mice were housed in a room with controlled temperature (23±3° C.) and moisture level (55±15% relative humidity) and exposed to a controlled 12 hour light/12 hour dark cycle. They were allowed to access to food and water ad libitum. Mice were fasted for 6 hours with free access to water prior to the pharmacokinetic study. To determine the time course of compounds 4, 8, and 15 action in the brain, the plasma pharmacokinetics and BBB penetration capability of the inhibitors were investigated. In these experiments, compounds 4, 8, and 15 were administered to mice by intravenous injection at a dosage of 10 mg/kg. Blood and brain samples were collected from mouse at each time point (2, 5, 10, 30, 60, 120, 240, 360, 720, 1440, and 2880 minutes), a total of 11 time points. For plasma measurements, blood (approximately 500-800 μl) was collected via cardiac-puncture into tubes containing sodium heparin anti-coagulant. Plasma was separated via centrifugation (4° C., 3500 rpm, 10 minutes) and stored in −80° C. freezer. For qualitative confirmations of these compounds in CSF, samples were collected at 2 time points (240 and 1440 min) from five animals at each time point. […]

The mark [3] stands for this setting: Table 7, 1:1 Langmuir binding fit, read-out: SPR KD.

ABAD, sequence (Q99714 whole entry): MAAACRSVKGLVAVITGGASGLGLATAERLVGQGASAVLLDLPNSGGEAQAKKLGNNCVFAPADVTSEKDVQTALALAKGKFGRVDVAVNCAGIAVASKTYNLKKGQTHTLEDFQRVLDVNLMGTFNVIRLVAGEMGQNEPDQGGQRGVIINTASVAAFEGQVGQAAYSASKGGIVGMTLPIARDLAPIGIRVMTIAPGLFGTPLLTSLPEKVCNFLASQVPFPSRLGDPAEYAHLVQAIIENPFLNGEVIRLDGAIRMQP
Procedure for ABAD: Binding Experiment with ABAD. The interactions between compounds and ABAD were performed using the dual flow cell BIACORE 3000 instrument. Surface Plasmon Resonance (SPR) studies were performed on a BIACORE 3000 at 25° C. SPR binding experiments with ABAD were performed in phosphate-buffered saline (PBS, pH 7.4, 0.005% surfactant P20) as the running and the sample buffer. […] ABAD was dissolved in PBS buffer (pH 5.0) at a concentration of 10 μg/ml. The protein was immobilized directly and covalently on the hydrophilic carboxymethylated dextran matrix of the CM5 sensor chip (BIACORE) by using the standard primary amine coupling reaction on a CM5 sensor chip according to standard procedures. After the immobilization of the protein, excess activated carboxylic acid groups were quenched with ethanolamine (1 M, pH 8.5).
Special care was taken during injection of samples because of carryover effects. Special washing routines were used to clean the system before injection of new samples. In addition, predipping of needles was performed. The sample flow was 40 μl/minute in experiments performed for the determination of the kinetic and equilibrium constants. Regeneration of the surfaces between subsequent binding experiments was achieved by washing the surface extensively (>>1 hour) with buffer solution. Data analyses were carried out using BIA evaluation software, and the sensor grams were processed by automatic correction for nonspecific bulk refractive index effects. The kinetic analyses of the ligand binding to the protein were performed based on the 1:1 Langmuir binding fit model according to the standard procedures described in the software manual.
To perform kinetic analyses of the binding of phosphonate derivatives to ABAD, the BIACORE 3000 instrument (based on surface plasmon resonance [SPR] technology) was used. The 1:1 Langmuir binding fit model was used for determining the equilibrium dissociation constant (KD), and the association (kon) and dissociation (koff) rate constants by using Equations (1) and (2). dR/dt=kon×C×(Rmax−R)−koff×R (1) Where R represents the response unit, C is the concentration of the analyte, and KD=koff/kon (2) The results were evaluated by χ2 analysis.

Usually Kd stands for a measure of binding affinity in units of concentration. One may read the AUC(0-inf) as the area under the concentration-time curve extrapolated to infinity. Usually Cmax stands for the peak of the concentration-time curve. One may read the half-life as how long it takes for the measured level to halve. The low end stands for rapid decline, the high end for slow decline. Consider `COc1ccc2nc(N[C@@H](c3ccc(O)cc3)P(=O)(OC)OC)sc2c1` (racemic) [Compound 8, Dimethyl ((4-hydroxyphenyl)((6-methoxybenzo[d]thiazol-2-yl)amino)methyl)phosphonate], for which, in data set [1], the calcium-mediated mitochondrial swelling result is recorded as “antagonized calcium-mediated mitochondrial swelling” and the “mitochondrial swelling without calcium” value was “did not affect mitochondrial swelling without calcium”. Moreover, the “hippocampal long-term potentiation (LTP)” value in the data set with mAPP mice is given as “impairments were diminished; also recorded: protective effects”. The Kd on ABAD (setting [3]) amounted to 291 nM. Moreover, in data set [2] (Brain), the AUC(0-inf) was 7.1 ng·h/mL, the concentration peaked (Cmax) at 4.8 ng/mL, the half-life is 8.3 h and the AUC(0-t) stood at 6.9 ng·h/mL. Besides, in data set [2] (Plasma), the AUC(0-inf) was found to be 2870 ng·h/mL, the Cmax turned out to be 2130 ng/mL, the half-life is 5.5 h and the AUC(0-t) was 2860 ng·h/mL.

A word on the Tmax: it is the time at which the peak concentration occurs. Consider `COC(=O)c1cc([C@H](Nc2nc3ccc(OC)cc3s2)P(=O)(OC)OC)ccc1O` [Compound 4, Methyl 5-((dimethoxyphosphoryl)((6-methoxybenzo[d]thiazol-2-yl)amino)methyl)-2-hydroxybenzoate], for which, in data set [1], the calcium-mediated mitochondrial swelling result is given as “antagonized calcium-mediated mitochondrial swelling” and the “mitochondrial swelling without calcium” value is “did not affect mitochondrial swelling without calcium”. The “hippocampal long-term potentiation (LTP)” value with mAPP mice is “impairments were diminished; also recorded: protective effects”. For the same compound, the Kd at ABAD (Table 6, read-out: KD) is 496 nM. Also, on ABAD (setting [3]), the Kd was 496 nM. In data set [2] (Brain), the AUC(0-inf) stood at 75.1 ng·h/mL, the Cmax amounted to 50.7 ng/mL, the Tmax came to 1.8 min and the half-life was 17.1 h. Besides, the AUC(0-t) in data set [2] (Brain) turned out to be 66.5 ng·h/mL. In data set [2] (Plasma), the AUC(0-inf) was 3030 ng·h/mL, the Cmax is 2370 ng/mL, the time to peak (Tmax) was 1.8 min and the half-life is 6.2 h. Moreover, the AUC(0-t) in data set [2] (Plasma) was found to be 3030 ng·h/mL.

For `COc1ccc2nc(N[C@@H](c3ccc(F)cc3)P(=O)(OC)OC)sc2c1` [Compound 15, Dimethyl ((4-fluorophenyl)((6-methoxybenzo[d]thiazol-2-yl)amino)methyl)phosphonate], in data set [1], the calcium-mediated mitochondrial swelling entry was “antagonized calcium-mediated mitochondrial swelling” and the “mitochondrial swelling without calcium” value is “did not affect mitochondrial swelling without calcium”. Moreover, on ABAD (setting [3]), the Kd came to 264 nM. Moreover, in data set [2] (Brain), the AUC(0-inf) came to 65.4 ng·h/mL, the peak level (Cmax) was 44.3 ng/mL, the Tmax came to 1.8 min and the half-life was 11.4 h. For the same compound, the AUC(0-t) in data set [2] (Brain) was found to be 64 ng·h/mL. In data set [2] (Plasma), the AUC(0-inf) is 2990 ng·h/mL, the highest level (Cmax) was 1980 ng/mL, the Tmax was found to be 1.8 min and the half-life is 6.1 h. Further, the AUC(0-t) in data set [2] (Plasma) was 2980 ng·h/mL.
